Read-outs that look alike come from different tables or passages of the source.
Tests used:
AURKB = target: T1, AURKB (Homo sapiens, UniProt Q96GD4); experiment: KINOMEscan scanEDGE; type: binding; conditions: 20 uM
T1 construct: purchased Eurofins DiscoverX (KINOMEscan; SAFETYscan E/IC50 ELECT)

AKT1 = target: T2, AKT1 (Homo sapiens, UniProt P31749); experiment: KINOMEscan scanEDGE; type: binding; conditions: 20 uM
T2 construct: purchased Eurofins DiscoverX (KINOMEscan; SAFETYscan E/IC50 ELECT)
Description: (§1) The specificity of EDG-5506 for fast skeletal myosin over other, unrelated proteins was confirmed using two off-target binding and activity screens. […] A second off-target panel (SAFETYscan E/IC50 ELECT, Eurofins DiscoverX) tested in vitro enzyme activity against 78 proteins, including GPCR, ion channel, kinases, nuclear hormone receptors, and transporters. In all assays, the IC50 of EDG-5506 was more than 10 μM (Supplemental Data File 1).

BTK = target: T3, BTK (Homo sapiens, UniProt Q06187); experiment: KINOMEscan scanEDGE; type: binding; conditions: 20 uM
T3 construct: purchased Eurofins DiscoverX (KINOMEscan; SAFETYscan E/IC50 ELECT)
Description: as §1

CSNK1G2 = target: T4, CSNK1G2 (Homo sapiens, UniProt P78368); experiment: KINOMEscan scanEDGE; type: binding; conditions: 20 uM
T4 construct: purchased Eurofins DiscoverX (KINOMEscan; SAFETYscan E/IC50 ELECT)
Description: as §1

DCAMKL1 = target: T5, DCAMKL1 (Homo sapiens, UniProt O15075); experiment: KINOMEscan scanEDGE; type: binding; conditions: 20 uM
T5 construct: purchased Eurofins DiscoverX (KINOMEscan; SAFETYscan E/IC50 ELECT)
Description: as §1

EPHA2 = target: T6, EPHA2 (Homo sapiens, UniProt P29317); experiment: KINOMEscan scanEDGE; type: binding; conditions: 20 uM
T6 construct: purchased Eurofins DiscoverX (KINOMEscan; SAFETYscan E/IC50 ELECT)
Description: as §1

FGFR2 = target: T7, FGFR2 (Homo sapiens, UniProt P21802); experiment: KINOMEscan scanEDGE; type: binding; conditions: 20 uM
T7 construct: purchased Eurofins DiscoverX (KINOMEscan; SAFETYscan E/IC50 ELECT)
Description: as §1

JNK2 = target: T8, JNK2 (Homo sapiens, UniProt P45984); experiment: KINOMEscan scanEDGE; type: binding; conditions: 20 uM
T8 construct: purchased Eurofins DiscoverX (KINOMEscan; SAFETYscan E/IC50 ELECT)
Description: as §1

KIT = target: T9, KIT (Homo sapiens, UniProt P10721); experiment: KINOMEscan scanEDGE; type: binding; conditions: 20 uM
T9 construct: purchased Eurofins DiscoverX (KINOMEscan; SAFETYscan E/IC50 ELECT)
Description: as §1

KIT(V559D,T670I) = target: T10, KIT(V559D,T670I) (Homo sapiens, UniProt P10721, T670I/V559D); experiment: KINOMEscan scanEDGE; type: binding; conditions: 20 uM
T10 construct: purchased Eurofins DiscoverX (KINOMEscan; SAFETYscan E/IC50 ELECT)
Description: as §1

MKNK1 = target: T11, MKNK1 (Homo sapiens, UniProt Q9BUB5); experiment: KINOMEscan scanEDGE; type: binding; conditions: 20 uM
T11 construct: purchased Eurofins DiscoverX (KINOMEscan; SAFETYscan E/IC50 ELECT)
Description: as §1

MLK1 = target: T12, MLK1 (Homo sapiens, UniProt P80192); experiment: KINOMEscan scanEDGE; type: binding; conditions: 20 uM
T12 construct: purchased Eurofins DiscoverX (KINOMEscan; SAFETYscan E/IC50 ELECT)
Description: as §1

PCTK1 = target: T13, PCTK1 (Homo sapiens, UniProt Q00536); experiment: KINOMEscan scanEDGE; type: binding; conditions: 20 uM
T13 construct: purchased Eurofins DiscoverX (KINOMEscan; SAFETYscan E/IC50 ELECT)
Description: as §1

PIK3C2B = target: T14, PIK3C2B (Homo sapiens, UniProt O00750); experiment: KINOMEscan scanEDGE; type: binding; conditions: 20 uM
T14 construct: purchased Eurofins DiscoverX (KINOMEscan; SAFETYscan E/IC50 ELECT)
Description: as §1

PIM1 = target: T15, PIM1 (Homo sapiens, UniProt P11309); experiment: KINOMEscan scanEDGE; type: binding; conditions: 20 uM
T15 construct: purchased Eurofins DiscoverX (KINOMEscan; SAFETYscan E/IC50 ELECT)
Description: as §1

PIM3 = target: T16, PIM3 (Homo sapiens, UniProt Q86V86); experiment: KINOMEscan scanEDGE; type: binding; conditions: 20 uM
T16 construct: purchased Eurofins DiscoverX (KINOMEscan; SAFETYscan E/IC50 ELECT)
Description: as §1

[1] = target: T17, TYK2(JH1domain-catalytic) (Homo sapiens, UniProt P29597); experiment: KINOMEscan scanEDGE; type: binding; conditions: 20 uM
T17 construct: TYK2(JH1domain-catalytic); purchased Eurofins DiscoverX (KINOMEscan; SAFETYscan E/IC50 ELECT)
Description: as §1

CDK7 = target: T18, CDK7 (Homo sapiens, UniProt P50613); experiment: KINOMEscan scanEDGE; type: binding; conditions: 20 uM
T18 construct: purchased Eurofins DiscoverX (KINOMEscan; SAFETYscan E/IC50 ELECT)

LKB1 = target: T19, LKB1 (Homo sapiens, UniProt Q15831); experiment: KINOMEscan scanEDGE; type: binding; conditions: 20 uM
T19 construct: purchased Eurofins DiscoverX (KINOMEscan; SAFETYscan E/IC50 ELECT)

p38-alpha = target: T20, p38-alpha (Homo sapiens, UniProt Q16539); experiment: KINOMEscan scanEDGE; type: binding; conditions: 20 uM
T20 construct: purchased Eurofins DiscoverX (KINOMEscan; SAFETYscan E/IC50 ELECT)

ADRA2A = target: T21, ADRA2A (Homo sapiens, UniProt P08913); experiment: SAFETYscan cAMP; type: cell-based; design: dose or concentration left out as unconfirmed
T21 construct: purchased Eurofins DiscoverX (KINOMEscan; SAFETYscan E/IC50 ELECT)
T21 sequence (P08913 whole entry): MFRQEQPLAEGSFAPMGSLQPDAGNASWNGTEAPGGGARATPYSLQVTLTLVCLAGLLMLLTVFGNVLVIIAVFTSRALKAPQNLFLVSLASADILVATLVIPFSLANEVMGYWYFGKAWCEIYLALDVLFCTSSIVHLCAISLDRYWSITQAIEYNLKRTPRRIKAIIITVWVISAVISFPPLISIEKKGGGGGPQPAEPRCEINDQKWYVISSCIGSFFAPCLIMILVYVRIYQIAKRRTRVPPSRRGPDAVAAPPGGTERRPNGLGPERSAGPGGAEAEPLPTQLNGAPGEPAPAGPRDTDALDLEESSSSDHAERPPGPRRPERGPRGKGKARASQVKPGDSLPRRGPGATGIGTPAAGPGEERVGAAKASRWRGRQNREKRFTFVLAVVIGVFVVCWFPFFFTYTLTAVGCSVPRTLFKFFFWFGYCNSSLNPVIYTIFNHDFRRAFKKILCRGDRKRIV
Description: as §1

ADRB1 = target: T22, ADRB1 (Homo sapiens, UniProt P08588); experiment: SAFETYscan cAMP; type: cell-based; design: dose or concentration left out as unconfirmed
T22 construct: purchased Eurofins DiscoverX (KINOMEscan; SAFETYscan E/IC50 ELECT)
T22 sequence (P08588 whole entry): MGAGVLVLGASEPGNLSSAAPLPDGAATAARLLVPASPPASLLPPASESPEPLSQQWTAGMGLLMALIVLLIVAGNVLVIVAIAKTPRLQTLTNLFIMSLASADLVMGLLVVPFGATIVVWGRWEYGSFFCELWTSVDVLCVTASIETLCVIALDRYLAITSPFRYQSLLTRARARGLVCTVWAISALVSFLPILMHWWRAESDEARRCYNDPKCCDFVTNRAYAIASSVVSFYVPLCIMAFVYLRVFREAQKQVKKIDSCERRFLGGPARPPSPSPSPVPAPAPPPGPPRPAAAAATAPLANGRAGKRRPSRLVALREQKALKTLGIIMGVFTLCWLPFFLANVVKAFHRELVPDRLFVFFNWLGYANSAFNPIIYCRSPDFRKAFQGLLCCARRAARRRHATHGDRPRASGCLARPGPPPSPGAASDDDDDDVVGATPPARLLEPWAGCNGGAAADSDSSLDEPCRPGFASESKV
Description: as §1

ADRB2 = target: T23, ADRB2 (Homo sapiens, UniProt P07550); experiment: SAFETYscan cAMP; type: cell-based; design: dose or concentration left out as unconfirmed
T23 construct: purchased Eurofins DiscoverX (KINOMEscan; SAFETYscan E/IC50 ELECT)
T23 sequence (P07550 whole entry): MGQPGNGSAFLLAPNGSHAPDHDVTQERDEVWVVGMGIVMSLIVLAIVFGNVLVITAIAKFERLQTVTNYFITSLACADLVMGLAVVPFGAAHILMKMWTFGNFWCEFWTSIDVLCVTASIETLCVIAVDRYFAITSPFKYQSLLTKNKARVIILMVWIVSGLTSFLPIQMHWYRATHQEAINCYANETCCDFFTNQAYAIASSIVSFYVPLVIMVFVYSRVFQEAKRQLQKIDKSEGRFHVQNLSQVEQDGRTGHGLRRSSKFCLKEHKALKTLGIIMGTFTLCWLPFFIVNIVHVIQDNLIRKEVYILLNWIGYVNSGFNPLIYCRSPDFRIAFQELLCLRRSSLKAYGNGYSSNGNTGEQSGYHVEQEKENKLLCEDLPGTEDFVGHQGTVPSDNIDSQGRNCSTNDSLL
Description: as §1

CHRM2 = target: T24, CHRM2 (Homo sapiens, UniProt P08172); experiment: SAFETYscan cAMP; type: cell-based; design: dose or concentration left out as unconfirmed
T24 construct: purchased Eurofins DiscoverX (KINOMEscan; SAFETYscan E/IC50 ELECT)
T24 sequence (P08172 whole entry): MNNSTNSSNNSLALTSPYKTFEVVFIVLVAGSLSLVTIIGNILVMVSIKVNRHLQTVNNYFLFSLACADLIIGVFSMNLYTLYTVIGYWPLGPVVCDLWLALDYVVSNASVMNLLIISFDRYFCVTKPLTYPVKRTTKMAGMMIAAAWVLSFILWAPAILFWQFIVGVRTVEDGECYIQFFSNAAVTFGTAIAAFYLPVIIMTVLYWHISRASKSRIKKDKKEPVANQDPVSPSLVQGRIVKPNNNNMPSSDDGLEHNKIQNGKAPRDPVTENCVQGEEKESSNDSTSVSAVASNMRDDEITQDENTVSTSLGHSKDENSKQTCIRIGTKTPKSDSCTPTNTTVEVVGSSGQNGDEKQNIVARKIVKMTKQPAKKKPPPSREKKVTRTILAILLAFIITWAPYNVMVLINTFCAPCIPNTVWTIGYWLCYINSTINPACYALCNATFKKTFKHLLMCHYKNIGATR
Description: as §1

CNR1 = target: T25, CNR1 (Homo sapiens, UniProt P21554); experiment: SAFETYscan cAMP; type: cell-based; design: dose or concentration left out as unconfirmed
T25 construct: purchased Eurofins DiscoverX (KINOMEscan; SAFETYscan E/IC50 ELECT)
T25 sequence (P21554 whole entry): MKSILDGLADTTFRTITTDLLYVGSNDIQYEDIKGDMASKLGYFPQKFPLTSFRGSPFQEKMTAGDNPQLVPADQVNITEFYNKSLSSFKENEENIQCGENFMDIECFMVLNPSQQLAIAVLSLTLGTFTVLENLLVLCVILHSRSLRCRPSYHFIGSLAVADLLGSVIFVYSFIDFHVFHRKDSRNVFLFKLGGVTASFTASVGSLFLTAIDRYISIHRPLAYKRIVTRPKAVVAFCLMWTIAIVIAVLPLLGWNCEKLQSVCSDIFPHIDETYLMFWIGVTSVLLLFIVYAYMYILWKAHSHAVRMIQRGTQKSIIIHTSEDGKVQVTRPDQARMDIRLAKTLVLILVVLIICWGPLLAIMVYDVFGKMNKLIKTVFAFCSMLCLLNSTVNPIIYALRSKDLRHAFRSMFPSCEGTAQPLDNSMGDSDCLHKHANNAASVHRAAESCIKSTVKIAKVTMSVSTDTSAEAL
Description: as §1

CNR2 = target: T26, CNR2 (Homo sapiens, UniProt P34972); experiment: SAFETYscan cAMP; type: cell-based; design: dose or concentration left out as unconfirmed
T26 construct: purchased Eurofins DiscoverX (KINOMEscan; SAFETYscan E/IC50 ELECT)
T26 sequence (P34972 whole entry): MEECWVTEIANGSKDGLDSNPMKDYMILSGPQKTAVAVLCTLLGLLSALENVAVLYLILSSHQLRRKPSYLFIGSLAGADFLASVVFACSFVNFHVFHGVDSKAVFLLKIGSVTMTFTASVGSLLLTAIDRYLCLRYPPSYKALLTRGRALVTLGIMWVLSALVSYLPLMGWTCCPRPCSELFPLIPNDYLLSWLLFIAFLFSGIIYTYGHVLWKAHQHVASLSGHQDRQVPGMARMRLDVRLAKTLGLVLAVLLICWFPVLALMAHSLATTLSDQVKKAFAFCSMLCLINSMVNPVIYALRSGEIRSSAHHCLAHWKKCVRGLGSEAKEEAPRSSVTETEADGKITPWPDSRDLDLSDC
Description: as §1

DRD1 = target: T27, DRD1 (Homo sapiens, UniProt P21728); experiment: SAFETYscan cAMP; type: cell-based; design: dose or concentration left out as unconfirmed
T27 construct: purchased Eurofins DiscoverX (KINOMEscan; SAFETYscan E/IC50 ELECT)
T27 sequence (P21728 whole entry): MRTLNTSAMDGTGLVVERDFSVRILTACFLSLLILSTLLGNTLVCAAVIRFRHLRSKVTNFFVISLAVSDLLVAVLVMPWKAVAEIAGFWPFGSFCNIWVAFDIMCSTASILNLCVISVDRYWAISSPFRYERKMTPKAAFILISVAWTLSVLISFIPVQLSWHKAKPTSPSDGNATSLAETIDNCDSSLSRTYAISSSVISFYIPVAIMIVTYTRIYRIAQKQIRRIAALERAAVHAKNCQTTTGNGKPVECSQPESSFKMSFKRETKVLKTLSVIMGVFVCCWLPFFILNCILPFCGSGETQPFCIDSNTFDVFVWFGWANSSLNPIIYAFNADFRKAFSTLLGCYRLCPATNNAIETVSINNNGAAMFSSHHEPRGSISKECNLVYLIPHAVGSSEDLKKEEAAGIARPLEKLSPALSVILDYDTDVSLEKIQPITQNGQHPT
Description: as §1

DRD2S = target: T28, DRD2S (Homo sapiens, UniProt P14416); experiment: SAFETYscan cAMP; type: cell-based; design: dose or concentration left out as unconfirmed
T28 construct: purchased Eurofins DiscoverX (KINOMEscan; SAFETYscan E/IC50 ELECT)
Description: as §1

HRH2 = target: T29, HRH2 (Homo sapiens, UniProt P25021); experiment: SAFETYscan cAMP; type: cell-based; design: dose or concentration left out as unconfirmed
T29 construct: purchased Eurofins DiscoverX (KINOMEscan; SAFETYscan E/IC50 ELECT)
Description: as §1

HTR1A = target: T30, HTR1A (Homo sapiens, UniProt P08908); experiment: SAFETYscan cAMP; type: cell-based; design: dose or concentration left out as unconfirmed
T30 construct: purchased Eurofins DiscoverX (KINOMEscan; SAFETYscan E/IC50 ELECT)
T30 sequence (P08908 whole entry): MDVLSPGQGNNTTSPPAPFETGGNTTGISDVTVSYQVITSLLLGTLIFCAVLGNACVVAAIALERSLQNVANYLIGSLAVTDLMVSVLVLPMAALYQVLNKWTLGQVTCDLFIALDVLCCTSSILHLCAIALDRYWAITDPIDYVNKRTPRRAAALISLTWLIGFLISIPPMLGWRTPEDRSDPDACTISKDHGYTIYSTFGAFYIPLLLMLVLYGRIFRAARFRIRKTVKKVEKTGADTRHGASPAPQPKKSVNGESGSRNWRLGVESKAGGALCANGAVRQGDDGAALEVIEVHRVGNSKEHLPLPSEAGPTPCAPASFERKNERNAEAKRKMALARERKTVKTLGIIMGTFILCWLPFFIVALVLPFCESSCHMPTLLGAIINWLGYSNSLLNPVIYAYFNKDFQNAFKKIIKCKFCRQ
Description: as §1

HTR1B = target: T31, HTR1B (Homo sapiens, UniProt P28222); experiment: SAFETYscan cAMP; type: cell-based; design: dose or concentration left out as unconfirmed
T31 construct: purchased Eurofins DiscoverX (KINOMEscan; SAFETYscan E/IC50 ELECT)
T31 sequence (P28222 whole entry): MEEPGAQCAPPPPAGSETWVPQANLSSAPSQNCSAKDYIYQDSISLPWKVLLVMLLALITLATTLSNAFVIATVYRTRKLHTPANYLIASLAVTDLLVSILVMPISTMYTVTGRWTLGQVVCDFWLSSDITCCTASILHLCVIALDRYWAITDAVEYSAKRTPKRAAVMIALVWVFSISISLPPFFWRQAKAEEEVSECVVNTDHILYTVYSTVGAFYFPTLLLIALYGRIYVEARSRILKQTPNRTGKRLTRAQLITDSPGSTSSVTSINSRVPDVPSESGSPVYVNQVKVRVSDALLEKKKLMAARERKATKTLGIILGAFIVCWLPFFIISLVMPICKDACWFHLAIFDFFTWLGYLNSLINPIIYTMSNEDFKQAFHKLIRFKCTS
Description: as §1

OPRD1 = target: T32, OPRD1 (Homo sapiens, UniProt P41143); experiment: SAFETYscan cAMP; type: cell-based; design: dose or concentration left out as unconfirmed
T32 construct: purchased Eurofins DiscoverX (KINOMEscan; SAFETYscan E/IC50 ELECT)
Description: as §1

OPRK1 = target: T33, OPRK1 (Homo sapiens, UniProt P41145); experiment: SAFETYscan cAMP; type: cell-based; design: dose or concentration left out as unconfirmed
T33 construct: purchased Eurofins DiscoverX (KINOMEscan; SAFETYscan E/IC50 ELECT)
T33 sequence (P41145 whole entry): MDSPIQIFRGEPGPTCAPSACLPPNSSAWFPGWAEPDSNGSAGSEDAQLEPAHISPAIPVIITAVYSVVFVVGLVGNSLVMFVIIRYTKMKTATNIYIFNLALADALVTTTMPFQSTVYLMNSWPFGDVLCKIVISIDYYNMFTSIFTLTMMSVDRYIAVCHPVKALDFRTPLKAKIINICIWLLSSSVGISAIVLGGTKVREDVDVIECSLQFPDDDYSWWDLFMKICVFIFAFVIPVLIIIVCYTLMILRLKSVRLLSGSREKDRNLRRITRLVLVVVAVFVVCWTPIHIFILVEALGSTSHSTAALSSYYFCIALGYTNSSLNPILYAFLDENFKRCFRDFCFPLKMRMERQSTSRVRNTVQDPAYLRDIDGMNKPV
Description: as §1

OPRM1 = target: T34, OPRM1 (Homo sapiens, UniProt P35372); experiment: SAFETYscan cAMP; type: cell-based; design: dose or concentration left out as unconfirmed
T34 construct: purchased Eurofins DiscoverX (KINOMEscan; SAFETYscan E/IC50 ELECT)
T34 sequence (P35372 whole entry): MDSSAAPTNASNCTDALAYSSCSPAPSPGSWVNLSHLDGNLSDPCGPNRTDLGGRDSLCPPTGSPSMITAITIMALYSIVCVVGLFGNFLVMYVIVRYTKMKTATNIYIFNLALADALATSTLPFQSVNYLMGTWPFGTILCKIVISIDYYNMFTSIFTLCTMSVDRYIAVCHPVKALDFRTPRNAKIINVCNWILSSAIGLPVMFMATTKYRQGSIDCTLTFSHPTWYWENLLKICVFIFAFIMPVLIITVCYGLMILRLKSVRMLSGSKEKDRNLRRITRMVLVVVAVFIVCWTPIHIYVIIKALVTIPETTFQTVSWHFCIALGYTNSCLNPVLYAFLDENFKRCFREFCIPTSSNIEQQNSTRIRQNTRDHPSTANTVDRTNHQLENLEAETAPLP
Description: as §1

[2] = read-out: Max Response (%) (Agonist)
[3] = read-out: Max Response (%) (Antagonist)

O=c1ccc(-c2cnc(OCC(F)(F)F)nc2)nn1Cc1cncc(F)c1 [EDG-5506]
binding, % of control (AURKB): 82 % of control | binding, % of control (AKT1): 100 % of control | binding, % of control (BTK): 93 % of control | binding, % of control (CSNK1G2): 96 % of control | binding, % of control (DCAMKL1): 76 % of control | binding, % of control (EPHA2): 58 % of control | binding, % of control (FGFR2): 84 % of control | binding, % of control (JNK2): 96 % of control | binding, % of control (KIT): 98 % of control | binding, % of control (KIT(V559D,T670I)): 100 % of control | binding, % of control (MKNK1): 85 % of control | binding, % of control (MLK1): 98 % of control | binding, % of control (PCTK1): 100 % of control | binding, % of control (PIK3C2B): 100 % of control | binding, % of control (PIM1): 97 % of control | binding, % of control (PIM3): 99 % of control | binding, % of control [1]: 87 % of control | binding, % of control (CDK7): 83 % of control | binding, % of control (LKB1): 86 % of control | binding, % of control (p38-alpha): 100 % of control | Emax (ADRA2A; [2]): 19.2% | Emax (ADRA2A; [3]): 0.88% | Emax (ADRB1; [2]): 2.02% | Emax (ADRB1; [3]): 9.68% | Emax (ADRB2; [2]): 0.97% | Emax (ADRB2; [3]): 20.8% | Emax (CHRM2; [2]): 21.5% | Emax (CHRM2; [3]): 0% | Emax (CNR1; [2]): 14.8% | Emax (CNR1; [3]): 3.38% | Emax (CNR2; [2]): 27.5% | Emax (CNR2; [3]): 0% | Emax (DRD1; [2]): 3.04% | Emax (DRD1; [3]): 14.3% | Emax (DRD2S; [2]): 7.3% | Emax (DRD2S; [3]): 1.39% | Emax (HRH2; [2]): 0% | Emax (HRH2; [3]): 15% | Emax (HTR1A; [2]): 0% | Emax (HTR1A; [3]): 1.51% | Emax (HTR1B; [2]): 0% | Emax (HTR1B; [3]): 4.17% | Emax (OPRD1; [2]): 7.61% | Emax (OPRD1; [3]): 9.41% | Emax (OPRK1; [2]): 9.76% | Emax (OPRK1; [3]): 0.05% | Emax (OPRM1; [2]): 17.4% | Emax (OPRM1; [3]): 0.2%
